According to ChEMBL document CHEMBL2401616, “A novel amalgamation of 1,2,3-triazoles, piperidines and thieno pyridine rings and evaluation of their antifungal activity” (2013):
Converted amounts (≈) assume the structure as drawn. The source made the active and inactive calls. No cut-off for these calls is given here.

tested on: Aspergillus niger; test: Antifungal activity against Aspergillus niger NCIM 1196 assessed as growth inhibition up to 200 ug/mL by agar dilution method; type: functional, organism-based

SMILES | growth inhibition (GI)
CCC(=O)N1CCC(n2cc(CN3CCc4sccc4C3)nn2)CC1 | inactive
O=C(c1ccccc1)N1CCC(n2cc(CN3CCc4sccc4C3)nn2)CC1 | inactive
CN1CCC(n2cc(CN3CCc4sccc4C3)nn2)CC1 | inactive

tested on: Candida albicans; test: Antifungal activity against Candida albicans NCIM 3471 assessed as growth inhibition by agar dilution method; type: functional

SMILES | MIC
CCC(=O)N1CCC(n2cc(CN3CCc4sccc4C3)nn2)CC1 | 50 µg/mL (≈ 139 µM)
CC(C)C(=O)N1CCC(n2cc(CN3CCc4sccc4C3)nn2)CC1 | 100 µg/mL (≈ 268 µM)
CC(=O)N1CCC(n2cc(CN3CCc4sccc4C3)nn2)CC1 | 40 µg/mL (≈ 116 µM)
CS(=O)(=O)N1CCC(n2cc(CN3CCc4sccc4C3)nn2)CC1 | 50 µg/mL (≈ 131 µM)
c1cc2c(s1)CCN(Cc1cn(C3CCNCC3)nn1)C2 | 50 µg/mL (≈ 165 µM)
c1ccc(CN2CCC(n3cc(CN4CCc5sccc5C4)nn3)CC2)cc1 | 50 µg/mL (≈ 127 µM)
O=C(c1ccc(Cl)cc1)N1CCC(n2cc(CN3CCc4sccc4C3)nn2)CC1 | 45 µg/mL (≈ 102 µM)
O=C(c1ccccc1)N1CCC(n2cc(CN3CCc4sccc4C3)nn2)CC1 | 90 µg/mL (≈ 221 µM)
Cc1ccc(S(=O)(=O)N2CCC(n3cc(CN4CCc5sccc5C4)nn3)CC2)cc1 | 60 µg/mL (≈ 131 µM)
Clc1ccc(COC(Cn2ccnc2)c2ccc(Cl)cc2Cl)c(Cl)c1 (stereo not given) [MICONAZOLE] | 25 µg/mL (≈ 60.1 µM)
CCN1CCC(n2cc(CN3CCc4sccc4C3)nn2)CC1 | 90 µg/mL (≈ 272 µM)
CN1CCC(n2cc(CN3CCc4sccc4C3)nn2)CC1 | 40 µg/mL (≈ 126 µM)

tested on: Aspergillus flavus; test: Antifungal activity against Aspergillus flavus NCIM 539 assessed as growth inhibition up to 200 ug/mL by agar dilution method; type: functional, organism-based

SMILES | growth inhibition (GI)
CC(=O)N1CCC(n2cc(CN3CCc4sccc4C3)nn2)CC1 | inactive

tested on: Fusarium oxysporum; test: Antifungal activity against Fusarium oxysporum NCIM 1332 assessed as growth inhibition up to 200 ug/mL by agar dilution method; type: functional, organism-based

SMILES | growth inhibition (GI)
O=C(c1ccccc1)N1CCC(n2cc(CN3CCc4sccc4C3)nn2)CC1 | inactive

tested on: Cryptococcus neoformans; test: Antifungal activity against Cryptococcus neoformans NCIM 576 assessed as growth inhibition by agar dilution method; type: functional

SMILES | MIC
CC(C)C(=O)N1CCC(n2cc(CN3CCc4sccc4C3)nn2)CC1 | 150 µg/mL (≈ 402 µM)
CS(=O)(=O)N1CCC(n2cc(CN3CCc4sccc4C3)nn2)CC1 | 25 µg/mL (≈ 65.5 µM)
c1cc2c(s1)CCN(Cc1cn(C3CCNCC3)nn1)C2 | 100 µg/mL (≈ 330 µM)
c1ccc(CN2CCC(n3cc(CN4CCc5sccc5C4)nn3)CC2)cc1 | 90 µg/mL (≈ 229 µM)
O=C(c1ccc(Cl)cc1)N1CCC(n2cc(CN3CCc4sccc4C3)nn2)CC1 | 45 µg/mL (≈ 102 µM)
O=C(c1ccccc1)N1CCC(n2cc(CN3CCc4sccc4C3)nn2)CC1 | 100 µg/mL (≈ 245 µM)
Cc1ccc(S(=O)(=O)N2CCC(n3cc(CN4CCc5sccc5C4)nn3)CC2)cc1 | 40 µg/mL (≈ 87.4 µM)
Clc1ccc(COC(Cn2ccnc2)c2ccc(Cl)cc2Cl)c(Cl)c1 (stereo not given) [MICONAZOLE] | 25 µg/mL (≈ 60.1 µM)
CCN1CCC(n2cc(CN3CCc4sccc4C3)nn2)CC1 | 150 µg/mL (≈ 453 µM)

tested on: Aspergillus niger; test: Antifungal activity against Aspergillus niger NCIM 1196 assessed as growth inhibition by agar dilution method; type: functional

SMILES | MIC
CC(C)C(=O)N1CCC(n2cc(CN3CCc4sccc4C3)nn2)CC1 | 47.5 µg/mL (≈ 127 µM)
CC(=O)N1CCC(n2cc(CN3CCc4sccc4C3)nn2)CC1 | 100 µg/mL (≈ 289 µM)
CS(=O)(=O)N1CCC(n2cc(CN3CCc4sccc4C3)nn2)CC1 | 40 µg/mL (≈ 105 µM)
c1cc2c(s1)CCN(Cc1cn(C3CCNCC3)nn1)C2 | 100 µg/mL (≈ 330 µM)
c1ccc(CN2CCC(n3cc(CN4CCc5sccc5C4)nn3)CC2)cc1 | 100 µg/mL (≈ 254 µM)
O=C(c1ccc(Cl)cc1)N1CCC(n2cc(CN3CCc4sccc4C3)nn2)CC1 | 42.5 µg/mL (≈ 96.2 µM)
Cc1ccc(S(=O)(=O)N2CCC(n3cc(CN4CCc5sccc5C4)nn3)CC2)cc1 | 37.5 µg/mL (≈ 81.9 µM)
Clc1ccc(COC(Cn2ccnc2)c2ccc(Cl)cc2Cl)c(Cl)c1 (stereo not given) [MICONAZOLE] | 12.5 µg/mL (≈ 30 µM)
CCN1CCC(n2cc(CN3CCc4sccc4C3)nn2)CC1 | 47.5 µg/mL (≈ 143 µM)

tested on: Fusarium oxysporum; test: Antifungal activity against Fusarium oxysporum NCIM 1332 assessed as growth inhibition by agar dilution method; type: functional

SMILES | MIC
CCC(=O)N1CCC(n2cc(CN3CCc4sccc4C3)nn2)CC1 | 60 µg/mL (≈ 167 µM)
CC(C)C(=O)N1CCC(n2cc(CN3CCc4sccc4C3)nn2)CC1 | 100 µg/mL (≈ 268 µM)
CC(=O)N1CCC(n2cc(CN3CCc4sccc4C3)nn2)CC1 | 45 µg/mL (≈ 130 µM)
CS(=O)(=O)N1CCC(n2cc(CN3CCc4sccc4C3)nn2)CC1 | 30 µg/mL (≈ 78.6 µM)
c1cc2c(s1)CCN(Cc1cn(C3CCNCC3)nn1)C2 | 90 µg/mL (≈ 297 µM)
c1ccc(CN2CCC(n3cc(CN4CCc5sccc5C4)nn3)CC2)cc1 | 75 µg/mL (≈ 191 µM)
O=C(c1ccc(Cl)cc1)N1CCC(n2cc(CN3CCc4sccc4C3)nn2)CC1 | 40 µg/mL (≈ 90.5 µM)
Cc1ccc(S(=O)(=O)N2CCC(n3cc(CN4CCc5sccc5C4)nn3)CC2)cc1 | 70 µg/mL (≈ 153 µM)
Clc1ccc(COC(Cn2ccnc2)c2ccc(Cl)cc2Cl)c(Cl)c1 (stereo not given) [MICONAZOLE] | 25 µg/mL (≈ 60.1 µM)
CCN1CCC(n2cc(CN3CCc4sccc4C3)nn2)CC1 | 100 µg/mL (≈ 302 µM)
CN1CCC(n2cc(CN3CCc4sccc4C3)nn2)CC1 | 70 µg/mL (≈ 220 µM)

tested on: Cryptococcus neoformans; test: Antifungal activity against Cryptococcus neoformans NCIM 576 assessed as growth inhibition up to 200 ug/mL by agar dilution method; type: functional, organism-based

SMILES | growth inhibition (GI)
CCC(=O)N1CCC(n2cc(CN3CCc4sccc4C3)nn2)CC1 | inactive
CC(=O)N1CCC(n2cc(CN3CCc4sccc4C3)nn2)CC1 | inactive
CN1CCC(n2cc(CN3CCc4sccc4C3)nn2)CC1 | inactive

tested on: Aspergillus flavus; test: Antifungal activity against Aspergillus flavus NCIM 539 assessed as growth inhibition by agar dilution method; type: functional

SMILES | MIC
CCC(=O)N1CCC(n2cc(CN3CCc4sccc4C3)nn2)CC1 | 30 µg/mL (≈ 83.4 µM)
CC(C)C(=O)N1CCC(n2cc(CN3CCc4sccc4C3)nn2)CC1 | 35 µg/mL (≈ 93.7 µM)
CS(=O)(=O)N1CCC(n2cc(CN3CCc4sccc4C3)nn2)CC1 | 40 µg/mL (≈ 105 µM)
c1cc2c(s1)CCN(Cc1cn(C3CCNCC3)nn1)C2 | 60 µg/mL (≈ 198 µM)
c1ccc(CN2CCC(n3cc(CN4CCc5sccc5C4)nn3)CC2)cc1 | 60 µg/mL (≈ 152 µM)
O=C(c1ccc(Cl)cc1)N1CCC(n2cc(CN3CCc4sccc4C3)nn2)CC1 | 40 µg/mL (≈ 90.5 µM)
O=C(c1ccccc1)N1CCC(n2cc(CN3CCc4sccc4C3)nn2)CC1 | 65 µg/mL (≈ 159 µM)
Cc1ccc(S(=O)(=O)N2CCC(n3cc(CN4CCc5sccc5C4)nn3)CC2)cc1 | 45 µg/mL (≈ 98.3 µM)
Clc1ccc(COC(Cn2ccnc2)c2ccc(Cl)cc2Cl)c(Cl)c1 (stereo not given) [MICONAZOLE] | 12.5 µg/mL (≈ 30 µM)
CCN1CCC(n2cc(CN3CCc4sccc4C3)nn2)CC1 | 35 µg/mL (≈ 106 µM)
CN1CCC(n2cc(CN3CCc4sccc4C3)nn2)CC1 | 40 µg/mL (≈ 126 µM)
